Results published in ChEMBL document CHEMBL1201862, “PubChem BioAssay data set” (2004).
Active and inactive are the calls of the source.

Legend:
[1] = alpha-synuclein stem-loop luciferase translation blockers – H4 neuroglioma cells, luminescence, confirmation (AID 1988); type: functional, cell-based
[2] = Luminescence Cell-Based Dose Response HTS to Identify Inhibitors of 5'UTR Stem-Loop Driven Prion Protein mRNA Translation in H4 Neuroglioblastoma Cells. [Related pubchem assays: 1827 (Project Summary), 1813 (Primary HTS)]; type: functional
HT-1080 = assay: HT1080 cell viability loss – fluorescence readout (AID 620); type: functional, cell-based; conditions: Homo sapiens
[3] = target: T1, Oxysterols receptor LXR-beta (Homo sapiens, UniProt P55055); type: functional, cell-based;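 further: Cell-based luminescence dose-response assay of agonist activity at LXR, run as a confirmatory counterscreen to a daf-12 agonist screen; HEK293 cells with Gal4-LXR fusion and GAL4-driven luciferase reporter; agonist potency from rising luciferase signal of a Gal4-LXR reporter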
T1 sequence (P55055 whole entry): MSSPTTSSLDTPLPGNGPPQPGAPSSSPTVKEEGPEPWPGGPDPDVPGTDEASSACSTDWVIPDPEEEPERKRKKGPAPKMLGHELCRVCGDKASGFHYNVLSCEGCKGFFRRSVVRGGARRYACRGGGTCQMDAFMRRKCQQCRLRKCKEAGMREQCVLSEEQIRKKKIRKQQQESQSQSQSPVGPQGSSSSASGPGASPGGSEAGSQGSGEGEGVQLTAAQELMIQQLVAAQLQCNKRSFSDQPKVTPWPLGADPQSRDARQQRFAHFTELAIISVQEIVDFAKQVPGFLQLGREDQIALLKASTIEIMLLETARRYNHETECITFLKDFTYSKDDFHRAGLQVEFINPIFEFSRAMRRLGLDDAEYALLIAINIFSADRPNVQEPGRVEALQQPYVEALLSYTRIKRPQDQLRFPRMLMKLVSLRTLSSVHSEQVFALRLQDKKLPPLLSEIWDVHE

[4] = target: Luciferin 4-monooxygenase (Photinus pyralis, UniProt P08659); assay: Counter Screen for Luciferase-based Assay Positives. [Related pubchem assays: 620, 618, 411 ]
Cytochrome P450 2D6 = Cytochrome P450 2D6 (Homo sapiens, UniProt P10635); assay: qHTS Assay for Inhibitors and Substrates of Cytochrome P450 2D6. [Related pubchem assays: 410 ]; type: ADME; conditions: read-out: Potency
[5] = target: Neuropeptide Y receptor type 2 (Homo sapiens, UniProt P49146); assay: Fluorescence-based cell-based high-throughput dose response assay for agonists of NPY-Y2. [Related pubchem assays: 1703 (Screening assay (CNGC inhibitors).), 1359 (Screening assay (NPY-Y2 potentiators or agonists).), 1304 (Screening assay (NPY-Y1 potentiators or agonists).), 1710 (Screening assay (NPY-Y2 agonists).), 1791 (Summary AID.)]; type: functional
HEK293 = assay: Fluorescence-based counterscreen for potentiators or agonists of NPY-Y2: cell-based high-throughput dose response assay to identify inhibitors of cyclic nucleotide gated ion channel (CNGC) activity. In this assay, the parental HEK293 cell line transfected with a cyclic-nucleotide gated ion channel (CNGC)-based cAMP sensor is used to measure inhibition of isoproterenol-induced CNGC activity by test compound.; type: functional; conditions: Homo sapiens;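 further: stimulus is 1 µM isoproterenol at EC100 plus PDE inhibitor Ro 20-1724 at 25 µM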
[6] = target: Neuropeptide Y receptor type 1 (Homo sapiens, UniProt P25929); assay: Fluorescence-based counterscreen for agonists of NPY-Y2: cell-based high-throughput dose response assay for agonists of NPY-Y1.; type: functional
[7] = target: Lysosomal acid glucosylceramidase (Homo sapiens, UniProt P04062); assay: Dose response cell-based high throughput screening assay to identify enhancers of beta-glucosidase activity. [Related pubchem assays: 784 ]; type: functional
Staphylococcus aureus = assay: Inhibitors of Bacterial Quorum Sensing Structure Activity Relationship (SAR) Analysis: Dose Response Assay. [Related pubchem assays: 700, 527 ]; type: functional, organism-based
Vero [8] = assay: viability of Vero cells under compound – cytotoxicity control for flavivirus capping enzyme inhibitors (AID 588742); type: functional; conditions: Chlorocebus sabaeus
[9] = target: DNA (cytosine-5)-methyltransferase 1 (Homo sapiens, UniProt P26358); assay: inhibition of DNA methylation by DNMT1 – biochemical, fluorescent molecular beacon, confirmation (AID 602386); type: functional
Vero [10] = assay: cells; type: functional; conditions: Chlorocebus sabaeus
[11] = target: T2, Zinc finger protein mex-5 (Caenorhabditis elegans, UniProt Q9XUB2); assay: potency of MEX-5 RNA-binding blockers – biochemical, C. elegans, fluorescence polarization, dose response (AID 1960)
T2 sequence (Q9XUB2 whole entry): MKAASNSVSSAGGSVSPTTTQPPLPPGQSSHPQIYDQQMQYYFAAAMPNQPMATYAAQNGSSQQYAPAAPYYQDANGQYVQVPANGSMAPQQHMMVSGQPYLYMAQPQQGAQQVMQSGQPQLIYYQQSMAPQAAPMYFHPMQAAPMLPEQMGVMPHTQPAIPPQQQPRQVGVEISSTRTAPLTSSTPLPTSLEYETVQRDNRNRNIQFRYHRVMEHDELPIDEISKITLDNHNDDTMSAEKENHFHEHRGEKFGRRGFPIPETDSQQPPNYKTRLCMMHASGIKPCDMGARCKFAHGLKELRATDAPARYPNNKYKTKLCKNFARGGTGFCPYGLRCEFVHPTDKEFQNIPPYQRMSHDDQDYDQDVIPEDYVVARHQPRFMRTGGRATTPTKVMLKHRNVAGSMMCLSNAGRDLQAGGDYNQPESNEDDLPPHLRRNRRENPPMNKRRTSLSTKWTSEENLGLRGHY

Vero [12] = assay: cells; type: functional, cell-based; conditions: Chlorocebus sabaeus
Streptococcus = assay: GAS UMAA2166 growth inhibition – luminescence, BacTiterGlo, counter-screen for streptokinase expression inhibitor project, dose response (AID 1915); type: functional, organism-based;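 further: potency for reduction of bacterial viability or growth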
Streptokinase A = target: T3, Streptokinase A (Streptococcus pyogenes serotype M1, UniProt P10520); assay: viability-normalized secreted streptokinase activity reduction – plasminogen activation absorbance, OD405, dose response (AID 1914); type: functional, Streptococcus pyogenes M1 GAS;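 further: secreted streptokinase activity via plasminogen activation per viability signal from cell pellet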
T3 sequence (P10520 whole entry): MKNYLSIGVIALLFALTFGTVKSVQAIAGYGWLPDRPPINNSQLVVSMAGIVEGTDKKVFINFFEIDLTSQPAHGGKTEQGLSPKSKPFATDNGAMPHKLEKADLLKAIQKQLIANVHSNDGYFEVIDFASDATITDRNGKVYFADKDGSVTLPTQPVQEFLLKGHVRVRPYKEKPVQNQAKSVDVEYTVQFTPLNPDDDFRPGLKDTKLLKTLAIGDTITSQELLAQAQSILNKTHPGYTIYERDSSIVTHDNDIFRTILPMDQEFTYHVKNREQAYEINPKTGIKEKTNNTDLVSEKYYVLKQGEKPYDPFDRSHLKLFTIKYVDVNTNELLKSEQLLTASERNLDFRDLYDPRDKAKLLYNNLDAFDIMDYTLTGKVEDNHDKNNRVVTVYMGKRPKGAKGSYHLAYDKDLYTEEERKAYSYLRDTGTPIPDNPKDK

[13] = tested on: Streptococcus sp. 'group A'; assay: Streptococcus pyogenes SK(-)GAS viability under kanamycin – luminescence, BacTiterGlo, confirmation, counter-screen for streptokinase expression inhibitor project, dose response (AID 1900); type: functional, organism-based
[14] = target: T4, RNA-binding protein pos-1 (Caenorhabditis elegans, UniProt G5EF15); assay: disruptors of C. elegans POS-1 RNA interaction – biochemical, fluorescence polarization, dose response (AID 1964);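 further: purified POS-1 fused to maltose binding protein made in E. coli; potency of compounds blocking POS-1 binding to fluorescent RNA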
T4 sequence (G5EF15 whole entry): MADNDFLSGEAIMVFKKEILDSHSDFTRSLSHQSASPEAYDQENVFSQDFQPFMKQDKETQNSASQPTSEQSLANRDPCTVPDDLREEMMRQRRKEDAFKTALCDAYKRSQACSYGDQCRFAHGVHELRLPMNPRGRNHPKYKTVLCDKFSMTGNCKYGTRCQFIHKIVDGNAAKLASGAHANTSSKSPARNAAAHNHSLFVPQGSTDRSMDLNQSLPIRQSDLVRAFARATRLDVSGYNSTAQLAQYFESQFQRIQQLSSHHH

[15] = target: Heat shock protein HSP 90-alpha (Homo sapiens, UniProt P07900); type: functional, organism-based
Genome polyprotein = Genome polyprotein (dengue virus type 2, UniProt P29990); assay: flavivirus cap methylation enzyme inhibition – biochemical, confirmation dose response, primary screen (AID 588689); type: functional
[16] = CCR5-tropic HIV-1 fusion blockers – cell-based, CCR5-tropic Env, dose response (AID 2279); type: functional
[17] = target: Melanin-concentrating hormone receptor 1 (Homo sapiens, UniProt Q99705); assay: Late-stage fluorescence-based counterscreen for antagonists of the G-protein coupled receptor 7 (GPR7): cell-based dose response assay to identify antagonists of the melanin-concentrating hormone receptor 1 (MCHR1). [Related pubchem assays (depositor defined):AID1861, AID1880, AID1952, AID2148, AID2251, AID2257, AID485339]; type: functional;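 further: stimulated with 30 nM MCH peptide agonist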
[18] = target: T5, Kappa-type opioid receptor (Homo sapiens, UniProt P41145); assay: kappa opioid receptor blockers, image-based, SAR follow-up (AID 2348); type: functional
[19] = target: T5, Kappa-type opioid receptor; assay: kappa opioid receptor activation potency – imaging, image-based, SAR follow-up (AID 2359); type: functional
[20] = target: T6, Delta-type opioid receptor (Homo sapiens, UniProt P41143); assay: DOR agonists, SAR follow-up, image-based (AID 2370); type: functional
[21] = target: T5, Kappa-type opioid receptor; assay: SAR analysis of small molecule agonists of the kappa opioid receptor via a luminescent beta-arrestin assay. [Related pubchem assays (depositor defined):AID1777, AID1786, AID1966, AID2133, AID2136, AID2348, AID2352, AID2357, AID2359, AID2370, AID2420, AID2478, AID2491, AID2492, AID2493, AID2497, AID2498, AID2500, AID449737, AID488822, AID488842]; type: functional
Mu-type opioid receptor [22] = target: T7, Mu-type opioid receptor (Homo sapiens, UniProt P35372); assay: mu opioid receptor blockers – image-based, SAR follow-up (AID 2420); type: functional;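 further: compounds added before stimulation of receptor with agonist DAMGO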
Mu-type opioid receptor [23] = target: T7, Mu-type opioid receptor; assay: mu opioid receptor activators, image-based, SAR follow-up (AID 2352); type: functional
[24] = target: T6, Delta-type opioid receptor; assay: delta opioid receptor blockers – image-based, SAR follow-up (AID 2357); type: functional
Chaperone protein dnaK = Chaperone protein dnaK (Escherichia coli, UniProt C3TRK2); assay: E. coli DnaK binders, calorimetric Kd – biophysical, isothermal titration calorimetry, beta-domain, full-length DnaK, orthogonal assay for DnaK modulator project, SAR follow-up (AID 1495)
[25] = target: Polyadenylate-binding protein 1 (Homo sapiens, UniProt P11940); assay: blockers of PABP interaction with poly(A) – biochemical, fluorescence polarization, […] (AID 2014)
[26] = target: Eukaryotic translation initiation factor 4H (Homo sapiens, UniProt Q15056); assay: eIF4H binding inhibition – biochemical, uHTS, fluorescence polarization, translation initiation inhibitor project, primary screen (AID 2012)
[27] = target: Cyclin-dependent kinase 5/CDK5 activator 1 (Homo sapiens, UniProt Q00535); assay: blockade of human CDK5 activity – biochemical, cherry-picked samples, set 2, dose response (AID 504545)
[28] = luciferase reporter signal suppression in cells – H4 neuroglioma cells, luminescence, dose response (AID 1990); type: functional, cell-based
[29] = target: T8, Ubiquitin-conjugating enzyme E2 N (Homo sapiens, UniProt P61088); type: functional;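 further: Dose-response confirmation in a TR-FRET assay detecting UBC13-driven polyubiquitin chain formation, inhibition measured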
T8 sequence (P61088 whole entry): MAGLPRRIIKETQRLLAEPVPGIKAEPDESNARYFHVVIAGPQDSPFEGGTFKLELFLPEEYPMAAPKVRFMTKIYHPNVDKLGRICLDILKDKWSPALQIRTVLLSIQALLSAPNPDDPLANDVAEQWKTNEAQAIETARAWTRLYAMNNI

T5 sequence (P41145 whole entry): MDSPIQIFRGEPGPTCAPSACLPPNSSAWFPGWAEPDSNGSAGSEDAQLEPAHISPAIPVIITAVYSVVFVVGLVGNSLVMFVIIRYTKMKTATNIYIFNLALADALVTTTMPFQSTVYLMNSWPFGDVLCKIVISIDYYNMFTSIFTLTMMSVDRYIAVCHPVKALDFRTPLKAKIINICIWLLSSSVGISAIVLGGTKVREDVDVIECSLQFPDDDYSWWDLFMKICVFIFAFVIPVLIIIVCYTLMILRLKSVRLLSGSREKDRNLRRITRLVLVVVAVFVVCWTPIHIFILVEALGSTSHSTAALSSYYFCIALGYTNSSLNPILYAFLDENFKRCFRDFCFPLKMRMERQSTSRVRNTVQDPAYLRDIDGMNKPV
T7 sequence (P35372 whole entry): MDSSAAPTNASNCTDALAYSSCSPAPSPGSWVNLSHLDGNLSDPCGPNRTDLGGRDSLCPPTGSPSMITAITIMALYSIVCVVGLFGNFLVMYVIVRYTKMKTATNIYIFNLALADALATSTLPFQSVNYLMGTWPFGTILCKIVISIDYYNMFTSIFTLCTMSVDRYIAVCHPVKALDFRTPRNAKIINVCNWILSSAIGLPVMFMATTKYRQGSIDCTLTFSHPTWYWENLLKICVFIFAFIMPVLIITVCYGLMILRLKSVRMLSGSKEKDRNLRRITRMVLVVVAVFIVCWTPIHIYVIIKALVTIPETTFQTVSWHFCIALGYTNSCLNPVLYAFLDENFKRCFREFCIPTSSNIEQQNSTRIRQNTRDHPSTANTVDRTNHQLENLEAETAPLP
T6 sequence (P41143 whole entry): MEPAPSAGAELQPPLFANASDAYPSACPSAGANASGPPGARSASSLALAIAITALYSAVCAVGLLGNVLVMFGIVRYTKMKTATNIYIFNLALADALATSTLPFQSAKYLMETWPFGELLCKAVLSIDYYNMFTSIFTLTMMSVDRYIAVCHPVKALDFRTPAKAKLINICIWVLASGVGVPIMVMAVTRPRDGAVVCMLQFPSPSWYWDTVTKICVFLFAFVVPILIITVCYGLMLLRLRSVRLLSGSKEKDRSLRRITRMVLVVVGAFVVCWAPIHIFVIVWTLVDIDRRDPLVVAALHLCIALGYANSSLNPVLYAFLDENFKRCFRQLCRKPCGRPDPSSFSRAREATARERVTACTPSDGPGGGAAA
Luciferin 4-monooxygenase, sequence (P08659 whole entry): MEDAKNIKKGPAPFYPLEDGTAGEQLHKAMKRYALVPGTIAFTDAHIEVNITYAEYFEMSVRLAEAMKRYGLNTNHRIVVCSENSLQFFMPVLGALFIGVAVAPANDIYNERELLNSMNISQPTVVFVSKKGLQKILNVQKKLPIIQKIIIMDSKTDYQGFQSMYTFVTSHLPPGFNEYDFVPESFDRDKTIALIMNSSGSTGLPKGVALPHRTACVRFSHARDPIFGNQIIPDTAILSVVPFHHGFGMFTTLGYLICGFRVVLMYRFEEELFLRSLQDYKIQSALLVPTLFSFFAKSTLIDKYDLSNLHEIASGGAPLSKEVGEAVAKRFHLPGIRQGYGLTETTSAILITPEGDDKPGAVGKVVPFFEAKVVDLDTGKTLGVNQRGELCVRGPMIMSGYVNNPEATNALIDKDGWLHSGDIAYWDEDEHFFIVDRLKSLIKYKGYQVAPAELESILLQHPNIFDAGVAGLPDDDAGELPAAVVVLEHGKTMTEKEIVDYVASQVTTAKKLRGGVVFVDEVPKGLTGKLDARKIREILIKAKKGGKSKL
Cyclin-dependent kinase 5/CDK5 activator 1, sequence (Q00535 whole entry): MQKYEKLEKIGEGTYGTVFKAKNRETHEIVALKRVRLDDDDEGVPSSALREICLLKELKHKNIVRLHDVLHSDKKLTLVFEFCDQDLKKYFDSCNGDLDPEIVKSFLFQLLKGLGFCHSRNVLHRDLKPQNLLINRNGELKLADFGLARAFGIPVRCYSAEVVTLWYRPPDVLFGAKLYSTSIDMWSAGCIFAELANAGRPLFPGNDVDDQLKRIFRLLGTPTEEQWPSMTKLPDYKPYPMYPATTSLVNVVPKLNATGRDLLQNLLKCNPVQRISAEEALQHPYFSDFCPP
Cyclin-dependent kinase 5/CDK5 activator 1, sequence (Q15078 whole entry, further chain): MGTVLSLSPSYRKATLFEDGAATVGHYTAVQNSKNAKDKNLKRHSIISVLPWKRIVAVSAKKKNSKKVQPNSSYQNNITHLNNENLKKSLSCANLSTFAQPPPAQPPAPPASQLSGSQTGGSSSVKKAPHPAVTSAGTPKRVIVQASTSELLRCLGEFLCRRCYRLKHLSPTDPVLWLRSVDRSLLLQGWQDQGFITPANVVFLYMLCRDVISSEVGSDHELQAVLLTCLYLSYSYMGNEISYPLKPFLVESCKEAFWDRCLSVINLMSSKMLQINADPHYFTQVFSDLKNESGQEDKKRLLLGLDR
Neuropeptide Y receptor type 2, sequence (P49146 whole entry): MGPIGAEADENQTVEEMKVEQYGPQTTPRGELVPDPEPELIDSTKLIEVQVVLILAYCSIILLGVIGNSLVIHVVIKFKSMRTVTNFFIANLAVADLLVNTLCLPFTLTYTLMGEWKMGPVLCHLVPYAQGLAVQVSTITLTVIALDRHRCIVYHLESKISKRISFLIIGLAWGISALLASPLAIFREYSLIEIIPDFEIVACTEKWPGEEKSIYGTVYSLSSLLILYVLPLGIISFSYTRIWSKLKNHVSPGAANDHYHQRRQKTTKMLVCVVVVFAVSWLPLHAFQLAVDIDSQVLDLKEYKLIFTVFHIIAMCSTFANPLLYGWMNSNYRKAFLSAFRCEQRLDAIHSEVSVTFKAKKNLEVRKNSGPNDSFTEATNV
Lysosomal acid glucosylceramidase, sequence (P04062 whole entry): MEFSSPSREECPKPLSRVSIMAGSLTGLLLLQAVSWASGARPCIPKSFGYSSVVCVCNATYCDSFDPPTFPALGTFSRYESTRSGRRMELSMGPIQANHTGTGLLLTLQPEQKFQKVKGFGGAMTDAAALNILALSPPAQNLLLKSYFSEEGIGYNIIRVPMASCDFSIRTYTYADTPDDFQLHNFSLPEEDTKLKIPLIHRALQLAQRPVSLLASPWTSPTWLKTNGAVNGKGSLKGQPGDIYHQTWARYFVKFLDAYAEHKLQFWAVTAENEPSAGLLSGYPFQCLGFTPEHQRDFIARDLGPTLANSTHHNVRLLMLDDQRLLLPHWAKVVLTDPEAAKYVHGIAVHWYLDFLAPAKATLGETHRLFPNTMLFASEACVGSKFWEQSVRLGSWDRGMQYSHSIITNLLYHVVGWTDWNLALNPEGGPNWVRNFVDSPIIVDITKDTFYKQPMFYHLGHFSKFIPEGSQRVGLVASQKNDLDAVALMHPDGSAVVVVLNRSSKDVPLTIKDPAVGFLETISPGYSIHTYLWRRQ
Chaperone protein dnaK, sequence (C3TRK2 whole entry): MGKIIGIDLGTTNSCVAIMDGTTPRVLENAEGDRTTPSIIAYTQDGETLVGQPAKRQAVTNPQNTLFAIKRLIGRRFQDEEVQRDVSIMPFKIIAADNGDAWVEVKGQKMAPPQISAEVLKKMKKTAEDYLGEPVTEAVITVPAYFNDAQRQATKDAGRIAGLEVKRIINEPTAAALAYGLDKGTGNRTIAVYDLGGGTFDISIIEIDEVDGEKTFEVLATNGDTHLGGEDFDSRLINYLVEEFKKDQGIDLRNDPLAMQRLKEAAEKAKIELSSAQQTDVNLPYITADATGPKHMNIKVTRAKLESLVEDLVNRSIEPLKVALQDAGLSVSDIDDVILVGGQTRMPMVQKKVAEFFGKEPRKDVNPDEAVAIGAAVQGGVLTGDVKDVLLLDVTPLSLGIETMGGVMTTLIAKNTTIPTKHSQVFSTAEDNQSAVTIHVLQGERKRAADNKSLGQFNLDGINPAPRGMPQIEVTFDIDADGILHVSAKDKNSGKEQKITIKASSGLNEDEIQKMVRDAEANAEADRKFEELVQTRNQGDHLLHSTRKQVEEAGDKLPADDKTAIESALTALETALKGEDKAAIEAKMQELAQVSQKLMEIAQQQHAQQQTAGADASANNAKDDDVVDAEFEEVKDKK
Melanin-concentrating hormone receptor 1, sequence (Q99705 whole entry): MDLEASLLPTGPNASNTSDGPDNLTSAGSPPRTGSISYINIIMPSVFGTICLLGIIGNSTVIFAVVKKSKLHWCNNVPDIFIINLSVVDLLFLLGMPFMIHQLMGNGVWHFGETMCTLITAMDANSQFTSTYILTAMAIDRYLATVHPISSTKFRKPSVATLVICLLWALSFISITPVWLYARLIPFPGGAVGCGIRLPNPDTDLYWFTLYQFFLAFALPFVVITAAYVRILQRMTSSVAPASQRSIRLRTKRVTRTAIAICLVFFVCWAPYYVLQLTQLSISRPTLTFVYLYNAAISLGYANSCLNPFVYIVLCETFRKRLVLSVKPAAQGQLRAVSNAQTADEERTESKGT
Neuropeptide Y receptor type 1, sequence (P25929 whole entry): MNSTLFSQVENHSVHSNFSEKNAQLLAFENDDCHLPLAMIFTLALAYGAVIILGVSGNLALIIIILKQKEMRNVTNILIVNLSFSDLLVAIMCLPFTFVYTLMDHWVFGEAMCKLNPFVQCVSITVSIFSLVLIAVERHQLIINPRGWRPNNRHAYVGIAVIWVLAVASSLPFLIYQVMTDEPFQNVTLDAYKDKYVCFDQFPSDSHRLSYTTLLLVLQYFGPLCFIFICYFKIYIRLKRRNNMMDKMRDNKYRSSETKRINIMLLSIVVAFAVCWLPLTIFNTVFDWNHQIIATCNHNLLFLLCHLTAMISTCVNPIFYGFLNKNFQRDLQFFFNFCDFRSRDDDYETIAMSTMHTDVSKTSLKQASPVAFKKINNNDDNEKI

Cc1ccc(-c2nc3n(n2)Cc2ccccc2-3)cc1
EC50 [1]: 6.59 µM (active)
EC50 [2]: 0.364 µM (active)
EC50 (HT-1080): > 50 µM (not active)
EC50 [3]: > 67.5 µM (inactive)
EC50 [4]: 2.87 µM (active)
EC50 (cells): > 67.5 µM (inactive)

CCOC(=O)OCC1C=C[C@H](c2cc(-c3ccccc3)ccc2O)C(c2ccc(C(C)=O)cc2)O1 (stereo not given in full)
AC50 (Cytochrome P450 2D6): 6.31 µM (inconclusive)

O=C(Nc1sc2c(c1-c1nc3ccccc3[nH]1)CCCC2)C1CC1
EC50 [5]: > 35.4 µM (not active)
EC50 (HEK293): > 35.4 µM (not active)
EC50 [6]: 17.3 µM (not active)

COC(=O)c1cn(C(=O)c2cccs2)c2ccccc12
EC50 [7]: > 50 µM (not active)

CCCCc1oc2ccccc2c1C(=O)c1ccc(O)cc1
IC50 (Staphylococcus aureus): 0.544 µM (active)

COc1ccc(C(=O)/C=C/c2ccc(-c3ccccc3)cc2)cc1CSCC(=O)O
CC50 (Vero [8]): 29.5 µM (active)
IC50 [9]: 9.8 µM (active)
CC50 (Vero [10]): > 25 µM (active)
EC50 [11]: > 300 µM (not active)
IC50 (Vero [12]): > 25 µM (active)
EC50 (Streptococcus): > 150 µM (not active)
EC50 (Streptokinase A): 8.81 µM (active)
EC50 [13]: 4.28 µM (active)
EC50 [14]: > 300 µM (not active)
AC50 [15]: 9.3 µM (active)
IC50 (Genome polyprotein): 37.7 µM (active)
IC50 [16]: 9.89 µM (active)

CCc1ccc(Oc2c(Cl)cnn(-c3ccc(C)cc3)c2=O)cc1
IC50 [17]: 5 µM (active)

Cc1cccc(-n2ccnc2CN2CCC(CO)(CC3CCCCO3)CC2)c1 (stereo not given)
IC50 [18]: > 32 µM (inactive)
EC50 [19]: 5.82 µM (active)
EC50 [20]: > 32 µM (inactive)
EC50 [21]: > 10 µM (inactive)
IC50 (Mu-type opioid receptor [22]): > 32 µM (inactive)
EC50 (Mu-type opioid receptor [23]): > 32 µM (inactive)
IC50 [24]: > 32 µM (inactive)

O=C(NCc1ccccc1O)c1cccs1
Kd (Chaperone protein dnaK): 2.3 µM (active)

O=C(O)c1ccc(N/N=C/c2cc3c(cc2[N+](=O)[O-])OCO3)cc1
IC50 [25]: 48.8 µM (active)
IC50 [26]: 21.8 µM (active)

CC(C)n1cnc2c(Nc3cccc(Cl)c3)nc(N(CCO)CCCO)nc21
EC50 [1]: 9.32 µM (active)
AC50 [27]: 0.463 µM (active)
EC50 [2]: 10.7 µM (active)
EC50 [28]: 10.8 µM (active)
IC50 [29]: > 20 µM (inactive)
